In patent publication US6573230B1, “Liquid cleaning composition containing an effective biodegradable chelating agent” (Colgate-Palmolive Company, priority 2002, dated 2003):

Columns and labels:
[1] = pH / physical stability on ageing; format: physicochemical; conditions: stable pH and absence of discoloration
[2] = Ready biodegradability of the sequestering agent; conditions: sequestering agent of the composition: A EDDS, B gluconic acid, C IDS Na, D EDTA

SMILES	pH Physical stability on ageing [1]	Biodegradability of sequestering agent (ready biodegradability) [2]
O=C(O)C[C@H](NCCN[C@@H](CC(=O)O)C(=O)O)C(=O)O [EDDS, trisodium ethylene diamine-N,N-disuccinate]	imparting product physical stability	biodegradable
O=C(O)CN(CCN(CC(=O)O)CC(=O)O)CC(=O)O [EDTA, ethylene diamine tetraacetate]		non-ready biodegradable
